Measurements: patent publication US9421209B2, “Kinase modulators” (Rhizen Pharmaceuticals SA, priority 2009, dated 2016)

Experiments:
P110 δ/Pi3K δ = P110 δ/Pi3K δ (Homo sapiens, UniProt O00329); assay: Fluorescent (HTRF) determination of PI3K enzyme activity, δ isoform; assay type: biochemical; settings: for IC50: read-out: P110 δ/Pi3K δ IC 50 nM
Description: Assay 1: Fluorescent determination of PI3Kinase Kinase enzyme activity
Phosphoinositide 3 kinases (PI3K) belong to a class of lipid kinases that play a critical role in the regulation of several key cellular processes. The PI3K are capable of phosphorylating the 3-hydroxy position of phosphoinositols thereby generating second messengers involved in downstream signalling events. The homogenous time resolved fluorescence (HTRF) assay allows detection of 3,4,5-triphosphate (PIP3) formed as a result of phosphorylation of phosphotidylinositol 4,5-biphosphate (PIP2) by PI3K isoforms such as α, β, γ or δ.
PI3K isoform activity for α, β, γ or δ was determined using a PI3K human HTRF™ Assay Kit (Millipore, Billerica, Mass.) with modifications. All incubations were carried out at room temperature. […] After the initial incubation, 5 μl/well of 400 μM ATP was added and incubated for an additional 30 minutes. Reaction was terminated by adding 5 μl/well stop solution (Millipore, Billerica, Mass.). Five microliters of detection mix (Millipore, Billerica, Mass.) were then added to each well and was incubated for 6-18 h in the dark. […] Data were analyzed using Graphpad Prism (Graphpad software; San Diego Calif.) for IC50 determination. Percent inhibition was calculated based on the values for the blank and enzyme controls.

Chain of P110 δ/Pi3K δ (O00329 whole entry, canonical isoform): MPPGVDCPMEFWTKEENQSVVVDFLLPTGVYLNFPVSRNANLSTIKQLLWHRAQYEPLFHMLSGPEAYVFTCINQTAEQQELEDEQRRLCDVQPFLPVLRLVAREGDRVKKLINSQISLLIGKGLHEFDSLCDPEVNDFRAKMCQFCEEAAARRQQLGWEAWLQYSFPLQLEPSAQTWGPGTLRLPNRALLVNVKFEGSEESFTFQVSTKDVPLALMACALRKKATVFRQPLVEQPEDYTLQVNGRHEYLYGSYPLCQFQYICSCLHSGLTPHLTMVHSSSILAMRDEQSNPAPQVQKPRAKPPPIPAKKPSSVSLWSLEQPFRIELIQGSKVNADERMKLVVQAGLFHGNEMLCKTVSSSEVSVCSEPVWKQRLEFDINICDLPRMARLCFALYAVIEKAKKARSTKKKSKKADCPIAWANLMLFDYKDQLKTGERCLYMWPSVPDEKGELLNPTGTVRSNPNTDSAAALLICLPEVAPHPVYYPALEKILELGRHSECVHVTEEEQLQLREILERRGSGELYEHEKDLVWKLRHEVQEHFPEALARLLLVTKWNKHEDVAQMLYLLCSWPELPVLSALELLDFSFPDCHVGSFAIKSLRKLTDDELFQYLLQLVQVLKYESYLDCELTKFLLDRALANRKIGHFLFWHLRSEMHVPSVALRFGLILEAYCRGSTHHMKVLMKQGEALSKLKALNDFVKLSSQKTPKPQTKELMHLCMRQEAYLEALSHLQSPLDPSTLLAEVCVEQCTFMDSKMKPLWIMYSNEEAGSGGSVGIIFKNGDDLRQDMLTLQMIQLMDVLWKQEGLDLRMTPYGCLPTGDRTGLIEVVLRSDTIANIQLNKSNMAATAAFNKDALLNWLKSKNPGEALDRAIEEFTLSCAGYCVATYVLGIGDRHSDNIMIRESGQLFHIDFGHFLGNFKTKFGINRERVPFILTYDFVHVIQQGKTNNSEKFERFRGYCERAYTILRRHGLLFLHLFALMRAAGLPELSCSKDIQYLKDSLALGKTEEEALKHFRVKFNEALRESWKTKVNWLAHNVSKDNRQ
Chain of P110 δ/Pi3K δ (P27986 whole entry partner, canonical isoform): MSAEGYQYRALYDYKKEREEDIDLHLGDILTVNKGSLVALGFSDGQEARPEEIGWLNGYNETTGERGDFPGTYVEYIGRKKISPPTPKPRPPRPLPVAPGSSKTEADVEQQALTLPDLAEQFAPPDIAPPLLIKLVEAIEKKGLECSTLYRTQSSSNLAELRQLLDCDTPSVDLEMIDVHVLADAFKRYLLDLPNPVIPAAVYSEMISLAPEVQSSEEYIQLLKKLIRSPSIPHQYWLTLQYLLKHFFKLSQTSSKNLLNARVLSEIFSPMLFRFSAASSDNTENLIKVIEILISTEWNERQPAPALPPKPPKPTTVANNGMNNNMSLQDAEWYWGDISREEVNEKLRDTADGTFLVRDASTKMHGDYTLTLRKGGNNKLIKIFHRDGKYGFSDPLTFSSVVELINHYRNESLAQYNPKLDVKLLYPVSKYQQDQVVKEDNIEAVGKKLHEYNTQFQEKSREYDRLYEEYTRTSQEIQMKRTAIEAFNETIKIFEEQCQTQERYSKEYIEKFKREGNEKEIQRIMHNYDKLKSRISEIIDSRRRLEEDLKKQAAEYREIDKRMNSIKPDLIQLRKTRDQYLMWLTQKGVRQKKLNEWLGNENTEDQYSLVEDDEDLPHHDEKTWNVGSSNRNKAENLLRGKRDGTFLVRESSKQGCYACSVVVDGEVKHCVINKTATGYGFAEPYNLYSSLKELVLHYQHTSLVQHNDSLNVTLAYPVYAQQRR

| inhibition at 1 µM (P110 δ/Pi3K δ) [%] | melting point [°C] | IC50 (P110 δ/Pi3K δ) [nM] | Structure (SMILES) |
| --- | --- | --- | --- |
| < 50 | 256 to 258 |  | CC(c1oc2ccc(Br)cc2c(=O)c1-c1ccccc1F)n1cnc2c(N)ncnc21 (stereo not shown) [Example 28, 2-(1-(6-Amino-9H-purin-9-yl)ethyl)-6-bromo-3-(2-fluorophenyl)-4H-chromen-4-one] |
| < 50 | 231 to 233 |  | Nc1ncnc2c1ncn2Cc1oc2ccc(Br)cc2c(=O)c1-c1ccccc1F [Example 29, 2-((6-Amino-9H-purin-9-yl)methyl)-6-bromo-3-(2-fluorophenyl)-4H-chromen-4-one] |
| < 50 | 226 to 227 |  | CC(c1oc2ccccc2c(=O)c1-c1ccccc1)n1ncc2c(N)ncnc21 (stereo not shown) [Example 30, 2-(1-(4-Amino-1H-pyrazolo[3,4-d]pyrimidin-1-yl)ethyl)-3-phenyl-4H-chromen-4-one] |
| 50 to 100 | 223 to 225 | 250 to 500 | CCC(c1oc2ccccc2c(=O)c1-c1ccccc1)n1cnc2c(N)ncnc21 (stereo not shown) [Example 31, 2-(1-(6-Amino-9H-purin-9-yl)propyl)-3-phenyl-4H-chromen-4-one] |
| < 50 | 202 to 205 |  | Nc1ncnc2c1ncn2Cc1oc2ccccc2c(=O)c1-c1ccccc1F [Example 33, 2-((6-Amino-9H-purin-9-yl)methyl)-3-(2-fluorophenyl)-4H-chromen-4-one] |
| 50 to 100 | 247 to 250 |  | CC(c1oc2ccccc2c(=O)c1-c1ccccc1F)n1cnc2c(N)ncnc21 (stereo not shown) [Example 34, 2-(1-(6-Amino-9H-purin-9-yl)ethyl)-3-(2-fluorophenyl)-4H-chromen-4-one] |
| < 50 | 160 to 163 |  | CCC(c1oc2ccccc2c(=O)c1-c1ccccc1F)n1cnc2c(N)ncnc21 (stereo not shown) [Example 35, 2-(1-(6-Amino-9H-purin-9-yl)propyl)-3-(2-fluorophenyl)-4H-chromen-4-one] |
| < 50 | 102 to 107 |  | CCC(c1oc2ccccc2c(=O)c1-c1cccc(F)c1)n1cnc2c(N)ncnc21 (stereo not shown) [Example 36, 2-(1-(6-amino-9H-purin-9-yl)propyl)-3-(3-fluorophenyl)-4H-chromen-4-one] |
| < 50 | 223 to 227 |  | CCC(c1oc2ccccc2c(=O)c1-c1ccc(F)cc1)n1cnc2c(N)ncnc21 (stereo not shown) [Example 37, 2-(1-(6-Amino-9H-purin-9-yl)propyl)-3-(4-fluorophenyl)-4H-chromen-4-one] |
| < 50 | 266 to 272 |  | CCC(c1oc2ccc(F)cc2c(=O)c1-c1ccccc1)n1cnc2c(N)ncnc21 (stereo not shown) [Example 38, 2-(1-(6-amino-9H-purin-9-yl)propyl)-6-fluoro-3-phenyl-4H-chromen-4-one] |
| < 50 | 210 to 212 |  | CC(c1oc2ccccc2c(=O)c1-c1ccc(F)cc1)n1cnc2c(N)ncnc21 (stereo not shown) [Example 39, 2-(1-(6-Amino-9H-purin-9-yl)ethyl)-3-(4-fluorophenyl)-4H-chromen-4-one] |
| 50 to 100 | 264 to 269 |  | CC(c1oc2ccc(F)cc2c(=O)c1-c1ccccc1)n1cnc2c(N)ncnc21 (stereo not shown) [Example 40, 2-(1-(6-Amino-9H-purin-9-yl)ethyl)-6-fluoro-3-phenyl-4H-chromen-4-one] |
| 50 to 100 | 176 to 178 |  | COc1cccc(-c2nn(C(C)c3oc4ccccc4c(=O)c3-c3ccccc3)c3ncnc(N)c23)c1 (stereo not shown) [Example 41, 2-(1-(4-Amino-3-(3-methoxyphenyl)-1H-pyrazolo[3,4-d]pyrimidin-1-yl)ethyl)-3-phenyl-4H-chromen-4-one] |
| < 50 | 155 to 158 |  | O=c1c(-c2ccccc2)c(CNc2ncnc3[nH]cnc23)oc2ccccc12 [Example 43, 2-((9H-purin-6-ylamino)methyl)-3-phenyl-4H-chromen-4-one] |
| 50 to 100 | 202 to 205 |  | Cc1ccccc1-c1c(C(C)n2cnc3c(N)ncnc32)oc2ccccc2c1=O (stereo not shown) [Example 44, 2-(1-(6-Amino-9H-purin-9-yl)ethyl)-3-o-tolyl-4H-chromen-4-one] |
| < 50 | 143 to 147 |  | O=c1c(-c2ccccc2F)c(CNc2ncnc3[nH]cnc23)oc2ccccc12 [Example 45, 2-((9H-purin-6-ylamino)methyl)-3-(2-fluorophenyl)-4H-chromen-4-one] |
| < 50 | 211 to 214 |  | O=c1c(-c2cccc(F)c2)c(CNc2ncnc3[nH]cnc23)oc2ccccc12 [Example 46, 2-((9H-purin-6-ylamino)methyl)-3-(3-fluorophenyl)-4H-chromen-4-one] |
| < 50 | 245 to 248 |  | CC(c1oc2ccc(F)cc2c(=O)c1-c1ccccc1F)n1cnc2c(N)ncnc21 (stereo not shown) [Example 48, 2-(1-(6-amino-9H-purin-9-yl)ethyl)-6-fluoro-3-(2-fluorophenyl)-4H-chromen-4-one] |
| < 50 | 267 to 269 |  | CC(c1oc2ccccc2c(=O)c1-c1cc(F)cc(F)c1)n1cnc2c(N)ncnc21 (stereo not shown) [Example 49, 2-(1-(6-Amino-9H-purin-9-yl)ethyl)-3-(3,5-difluorophenyl)-4H-chromen-4-one] |
| 50 to 100 | 252 to 255 |  | CC(c1oc2ccc(F)cc2c(=O)c1-c1cccc(F)c1)n1cnc2c(N)ncnc21 (stereo not shown) [Example 50, 2-(1-(6-amino-9H-purin-9-yl)ethyl)-6-fluoro-3-(3-fluorophenyl)-4H-chromen-4-one] |
| 50 to 100 | 282 to 285 | < 250 | CC(c1oc2ccccc2c(=O)c1-c1cccc(F)c1)n1nc(-c2cccc(O)c2)c2c(N)ncnc21 (stereo not shown) [Example 51a, 2-(1-(4-amino-3-(3-hydroxyphenyl)-1H-pyrazolo[3,4-d]pyrimidin-1-yl)ethyl)-3-(3-fluorophenyl)-4H-chromen-4-one] |
| < 50 | 111 to 115 |  | COc1cccc(-c2nn(Cc3oc4ccccc4c(=O)c3-c3ccccc3)c3ncnc(N)c23)c1 [Example 52, 2-((4-Amino-3-(3-methoxyphenyl)-1H-pyrazolo[3,4-d]pyrimidin-1-yl)methyl)-3-phenyl-4H-chromen-4-one] |
| < 50 | 175 to 178 |  | COc1cccc(-c2nn(Cc3oc4ccccc4c(=O)c3-c3cccc(F)c3)c3ncnc(N)c23)c1 [Example 54, 2-((4-amino-3-(3-methoxyphenyl)-1H-pyrazolo[3,4-d]pyrimidin-1-yl)methyl)-3-(3-fluorophenyl)-4H-chromen-4-one] |
| < 50 | 274 to 276 |  | C[C@@H](Nc1ncnc2[nH]cnc12)c1oc2ccccc2c(=O)c1-c1cccc(F)c1 [Example 56, (R)-2-(1-(9H-purin-6-ylamino)ethyl)-3-(3-fluorophenyl)-4H-chromen-4-one] |
| < 50 | 253 to 255 |  | Nc1ncnc2c1c(-c1cccnc1)nn2Cc1oc2ccccc2c(=O)c1-c1ccccc1 [Example 58, 2-((4-amino-3-(pyridin-3-yl)-1H-pyrazolo[3,4-d]pyrimidin-1-yl)methyl)-3-phenyl-4H-chromen-4-one] |
